In patent publication US4272437A, “Antibacterial agents, and 4-thio azetidinone intermediates” (priority 1979, dated 1981):
Converted amounts (≈) assume the structure as drawn. “And” between values parts separate entries of the source, which are not always exact repeats. Equal entries are not always repeated. Where two headings read alike, the source gives them in different places.

Assays:
Ser. marcescens A-20019 = assay: MIC, tube dilution, Serratia marcescens A20019; assay type: cell-based; details: overnight 37° C.
From the text: (§1) Representative compounds of the present invention were subjected to in vitro antibiotic screening against a variety of microorganisms.

Ps. aeruginosa A-21213 = assay: MIC, tube dilution, Pseudomonas aeruginosa A21213; assay type: cell-based; details: overnight 37° C.; for MIC: read-out: Minimum Inhibitory Concentration (M.I.C.)
From the text: as §1

[1] = tested on: Staph. aureus (Pen-Res) A-9606; assay: MIC, tube dilution, Staphylococcus aureus A9606 (Pen-Res); assay type: cell-based; details: overnight 37° C.
From the text: as §1

[2] = stability in aqueous solution followed by UV; assay type: physicochemical; parameters: unit not given here; details: UV, aqueous solution
Experimental: To a solution of penem 3 (2.4 g, 6.89 mmoles) in tetrahydrofuran-ether-water mixture (1:1:1, 165 ml) was added 30% palladium on diatomaceous earth (4.8 g). The reaction mixture was hydrogenated under 45 p.s.i. at 23° C. for 2.5 h and filtered over celite pad. The filtrate and washings were combined, washed twice with ether, centrifugated and filtered several times to give a clear solution which was lyophilized; 0.622 g, 45%. The crystallization of the compound was induced by the addition of water (0.8 ml); the suspension was centrifuged and the water was removed leaving an orange solid. This solid was washed twice with water and a slightly yellow solid was obtained after drying: […], 19.8%. UV λmax^H.sbsp.2^O : 307 (ε=4318) and 257 (ε=2650). Some crude starting material (1.2 g, 50%) was recovered. The compound (50 mg) can also be purified by column chromatography [Sephadex G10, column size: 1.6×100 cm, flow rate: 10 ml/h, eluent: distilled water, fraction volume: 1.5 ml, detector: refractive index]. UV λmax^H.sbsp.2^O 307 (ε=3597) and 255 (ε=2424).
The stability of the compound in aqueous solution was checked by:
A sample of compound 4 was kept at 23° C. for 3 days and the UV was taken: UV λmax^H.sbsp.2^O : 307 (ε=3055) and 255 (ε=2008).
To a solution of ester 6 (200 mg, 0.5 mmole) in tetrahydrofuran (10 ml) was added ether (10 ml), water (10 ml) and 30% palladium on diatomaceous earth (200 mg). The reaction mixture was hydrogenated in a Parr apparatus under 35 p.s.i. at 25° C. for 2 h 30 min and filtered over a celite pad. The filtrate was washed twice with ether and the aqueous solution was lyophilized, giving a yellow powder which was purified by column chromatography [Sephadex G-10, bed dimensions: 100×1.6 cm, flow rate: 12 ml/h, eluent: distilled water, fraction volume: 1.5 ml detector: refractive index]. The right fractions were combined and lyophilized to give a white powder (10 mg, 8.8%). UV λmax^H.sbsp.2 O 301 (ε=4930), 258 (ε=3290). IR (KBr) cm^-1 :1770 (c=o of β-lactam) and 1580 [drawing 587] The stability of compound 7 in aqueous solution was followed by UV; after 6 h: 301 (4795) and 258 (3105) and after 72 h: 301 (4565) and 258 (3150). […]

Ent. cloacae A-9659 = assay: MIC, tube dilution, Enterobacter cloacae A9659; assay type: cell-based; details: overnight 37° C.
From the text: as §1

Pr. morganii A-15153 = assay: MIC, tube dilution, Proteus morganii A15153; assay type: cell-based; details: overnight 37° C.
From the text: as §1

Ent. cloacae A-9656 = assay: MIC, tube dilution, Enterobacter cloacae A9656; assay type: cell-based; details: Enterobacter cloacae A9656, overnight 37° C.
From the text: as §1

Ps. aeruginosa A-9843A = assay: MIC, tube dilution, Pseudomonas aeruginosa A9843A; assay type: cell-based; details: overnight 37° C.
From the text: as §1

Pr. vulgaris A-9716 = assay: MIC, tube dilution, Proteus vulgaris / Proteus mirabilis A9716; assay type: cell-based, Proteus vulgaris (name changed to Proteus mirabilis); details: Proteus vulgaris / Proteus mirabilis A9716; overnight 37° C.
From the text: as §1

E. coli A-20341-1 = assay: MIC, tube dilution, Escherichia coli A20341-1; assay type: cell-based
From the text: as §1

Str. pneumoniae A-9585 = assay: MIC, tube dilution, Streptococcus pneumoniae A9585; assay type: cell-based; details: overnight 37° C., Nutrient Broth
From the text: as §1

Str. faecalis A-20688 = assay: MIC, tube dilution, Streptococcus faecalis A20688; assay type: cell-based; details: overnight 37° C.; for MIC: Enterococcus faecalis, A20688, Str. faecalis A20688, read-out: Minimum Inhibitory Concentration (M.I.C.)
From the text: as §1

Str. pyogenes A-9604 = assay: MIC, tube dilution, Streptococcus pyogenes A9604; assay type: cell-based; details: overnight 37° C., Nutrient Broth
From the text: as §1

Proteus rettgeri A21203 = assay: MIC, tube dilution, Proteus rettgeri A21203; assay type: cell-based; details: Proteus rettgeri A21203, overnight 37° C.
From the text: as §1

[3] = tested on: Staph. aureus A-9537 and 50% serum; assay: MIC, tube dilution, Staph. aureus A9537 + 50% serum; assay type: cell-based, Staphylococcus aureus; details: overnight 37° C.
From the text: as §1

E. coli A-15119 = assay: MIC, tube dilution, Escherichia coli A15119; assay type: cell-based; details: overnight 37° C.
From the text: as §1

[4] = tested on: Klebsiella species A20468; assay: MIC, tube dilution, Klebsiella species A20468; assay type: cell-based; details: Klebsiella species (K. pneumoniae) A20468, overnight 37° C.; for MIC: read-out: Minimum Inhibitory Concentration (M.I.C.)
From the text: as §1

[5] = tested on: Staph. aureus (Meth-Res) A-15097; assay: MIC, tube dilution, Staphylococcus aureus A15097 (Meth-Res); assay type: cell-based; details: overnight 37° C.; for MIC: Staphylococcus aureus
From the text: as §1

Pr. mirabilis A-9900 = assay: MIC, tube dilution, Proteus mirabilis A9900; assay type: cell-based; details: overnight 37° C.
From the text: as §1

Staph. aureus A-9537 = assay: MIC, tube dilution, Staphylococcus aureus A9537; assay type: cell-based; details: overnight 37° C., Nutrient Broth
From the text: as §1

Proteus vulgaris A9555 = assay: MIC, tube dilution, Proteus vulgaris (mirabilis) A9555; assay type: cell-based; details: overnight 37° C., read-out: Minimum Inhibitory Concentration (M.I.C.)
From the text: as §1

K. pneumoniae A-15130 = assay: MIC, tube dilution, Klebsiella pneumoniae A15130; assay type: cell-based; details: overnight 37° C.
From the text: as §1

For NCCCC1=C(C(=O)O)N2C(=O)CC2S1 (centres unmarked) [Example 51, 2-(γ-Aminopropyl)penem-3-carboxylic Acid], the “Minimum Inhibitory Concentration (M.I.C.)” value (Ser. marcescens A-20019; Serratia marcescens A20019) was 32 µg/mL and 16 µg/mL, the “Minimum Inhibitory Concentration (M.I.C.)” value (Ps. aeruginosa A-21213; Pseudomonas aeruginosa A21213) was 125 µg/mL and the MIC (Ps. aeruginosa A-21213; Pseudomonas aeruginosa, A21213, Pseudomonas aeruginosa A21213) was 63 µg/mL (≈ 276 µM). For the same compound, the “Minimum Inhibitory Concentration (M.I.C.)” value ([1]; Staph. aureus A9606 (Pen-Res)) was 63 µg/mL and 32 µg/mL, the “ε at 258 in aqueous solution (stability)” value ([2]; after 6 h) was 3105 and the “ε at 301 in aqueous solution (stability)” value ([2]; after 6 h) was 4795. The “ε at 258 in aqueous solution (stability)” value ([2]; after 72 h) was 3150, the “ε at 301 in aqueous solution (stability)” value ([2]; after 72 h) was 4565 and the “Minimum Inhibitory Concentration (M.I.C.)” value (Ent. cloacae A-9659; Enterobacter cloacae A9659) was 16 µg/mL. For the same compound, the “Minimum Inhibitory Concentration (M.I.C.)” value (Pr. morganii A-15153; Proteus morganii A15153) was 32 µg/mL and 16 µg/mL, the “Minimum Inhibitory Concentration (M.I.C.)” value (Ent. cloacae A-9656) was 32 µg/mL and the “Minimum Inhibitory Concentration (M.I.C.)” value (Ps. aeruginosa A-9843A; Pseudomonas aeruginosa A9843A) was 125 µg/mL and 63 µg/mL. For the same compound, the “Minimum Inhibitory Concentration (M.I.C.)” value (Pr. vulgaris A-9716) was 16 µg/mL, the “Minimum Inhibitory Concentration (M.I.C.)” value (E. coli A-20341-1; E. coli A20341-1; overnight 37° C.) was 125 µg/mL and the MIC (E. coli A-20341-1; Escherichia coli, A203411, E. coli A20341-1; overnight 37° C.; read-out: Minimum Inhibitory Concentration (M.I.C.)) was greater than 63 µg/mL. The “Minimum Inhibitory Concentration (M.I.C.)” value (Str. pneumoniae A-9585; Str. pneumoniae A9585) was “.25 µg/mL”, the MIC (Str. faecalis A-20688) was 63 µg/mL (≈ 276 µM) and the “Minimum Inhibitory Concentration (M.I.C.)” value (Str. faecalis A-20688; Str. faecalis A20688) was 125 µg/mL. The “Minimum Inhibitory Concentration (M.I.C.)” value (Str. pyogenes A-9604; Str. pyogenes A9604) was 2 µg/mL and 1 µg/mL, the “Minimum Inhibitory Concentration (M.I.C.)” value (Proteus rettgeri A21203) was 16 µg/mL and 8 µg/mL and the “Minimum Inhibitory Concentration (M.I.C.)” value [3] was 63 µg/mL and > 32 µg/mL. The “Minimum Inhibitory Concentration (M.I.C.)” value (E. coli A-15119; E. coli A15119) was 16 µg/mL and 8 µg/mL, the “Minimum Inhibitory Concentration (M.I.C.)” value [4] was greater than 125 µg/mL and the MIC [4] was greater than 63 µg/mL. The “Minimum Inhibitory Concentration (M.I.C.)” value ([5]; Staph. aureus A15097 (Meth-Res)) was 125 µg/mL, the MIC ([5]; Staph. aureus A15097 (Meth-Res), read-out: Minimum Inhibitory Concentration (M.I.C.)) was 63 µg/mL (≈ 276 µM) and the “Minimum Inhibitory Concentration (M.I.C.)” value (Pr. mirabilis A-9900; Proteus mirabilis A9900) was 16 µg/mL and 8 µg/mL. For the same compound, the “Minimum Inhibitory Concentration (M.I.C.)” value (Staph. aureus A-9537; Staph. aureus A9537) was 2 µg/mL and 1 µg/mL, the MIC (Proteus vulgaris A9555) was 63 µg/mL (≈ 276 µM) and the “Minimum Inhibitory Concentration (M.I.C.)” value (K. pneumoniae A-15130; K. pneumoniae A15130) was 32 µg/mL.

In the case of CSc1nnc(C2=C(C(=O)O)N3C(=O)CC3S2)o1 (centres unmarked) [Example 56, Sodium 3-(5-Methylthio-1,3,4-oxadiazol-2-yl)penem-3-carboxylate], the MIC (Ser. marcescens A-20019; Serratia marcescens, A20019, Serratia marcescens A20019, read-out: Minimum Inhibitory Concentration (M.I.C.)) is reported as greater than 125 µg/mL, the MIC (Ps. aeruginosa A-21213; Pseudomonas aeruginosa A21213) is reported as 125 µg/mL and the MIC ([1]; Staphylococcus aureus, read-out: Minimum Inhibitory Concentration (M.I.C.), Staph. aureus A9606 (Pen-Res)) is reported as greater than 125 µg/mL. The MIC (Ent. cloacae A-9659; Enterobacter cloacae, A9659, Enterobacter cloacae A9659, read-out: Minimum Inhibitory Concentration (M.I.C.)) was greater than 125 µg/mL, the MIC (Pr. morganii A-15153; Morganella morganii, A15153, Proteus morganii A15153, read-out: Minimum Inhibitory Concentration (M.I.C.)) was greater than 125 µg/mL and the MIC (Ent. cloacae A-9656; read-out: Minimum Inhibitory Concentration (M.I.C.)) was greater than 125 µg/mL. The MIC (Ps. aeruginosa A-9843A; Pseudomonas aeruginosa, A9843A, read-out: Minimum Inhibitory Concentration (M.I.C.), Pseudomonas aeruginosa A9843A) was 125 µg/mL, the MIC (E. coli A-20341-1; Escherichia coli, A203411; E. coli A20341-1; overnight 37° C.; read-out: Minimum Inhibitory Concentration (M.I.C.)) was greater than 125 µg/mL and the MIC (Str. pneumoniae A-9585; Streptococcus pneumoniae, A9585, Str. pneumoniae A9585, read-out: Minimum Inhibitory Concentration (M.I.C.)) was 125 µg/mL. It also gave an MIC (Str. faecalis A-20688) greater than 125 µg/mL, an MIC (Str. pyogenes A-9604; Streptococcus pyogenes, A9604, Str. pyogenes A9604, read-out: Minimum Inhibitory Concentration (M.I.C.)) of 125 µg/mL and an MIC (Proteus rettgeri A21203; Providencia rettgeri, read-out: Minimum Inhibitory Concentration (M.I.C.)) greater than 125 µg/mL. For the same compound, the MIC ([3]; Staphylococcus aureus, read-out: Minimum Inhibitory Concentration (M.I.C.)) was greater than 63 µg/mL, the MIC (E. coli A-15119; Escherichia coli, A15119, E. coli A15119, read-out: Minimum Inhibitory Concentration (M.I.C.)) was greater than 125 µg/mL and the MIC [4] was greater than 125 µg/mL. For the same compound, the MIC ([5]; read-out: Minimum Inhibitory Concentration (M.I.C.), Staph. aureus A15097 (Meth-Res)) was greater than 125 µg/mL, the MIC (Pr. mirabilis A-9900; Proteus mirabilis, A9900, Proteus mirabilis A9900, read-out: Minimum Inhibitory Concentration (M.I.C.)) was greater than 125 µg/mL and the MIC (Staph. aureus A-9537; Staphylococcus aureus, A9537, Staph. aureus A9537, read-out: Minimum Inhibitory Concentration (M.I.C.)) was greater than 125 µg/mL. For the same compound, the MIC (Proteus vulgaris A9555) was greater than 125 µg/mL and the MIC (K. pneumoniae A-15130; Klebsiella pneumoniae, A15130, K. pneumoniae A15130, read-out: Minimum Inhibitory Concentration (M.I.C.)) was greater than 125 µg/mL.
